Results published in patent US6677450B2, “Topoisomerase inhibitors” (Bristol-Myers Squibb Company, priority 2000, dated 2004).
Read-outs that look alike come from different tables or passages of the source.

Assays:
[1] = molecular target: T1, purified human topoisomerase I (Homo sapiens, UniProt P11387); assay: Topoisomerase I activity (in vitro): compound-induced, topoisomerase I-mediated single strand breaks in PM2 DNA; assay type: biochemical; conditions: 30 minutes at 37° C., agarose gel densitometry, read-out: EC50 (median effective concentration for inducing topoisomerase I-mediated single strand breaks in DNA)
T1 construct: purchased Topogen
T1 sequence (P11387 1-765): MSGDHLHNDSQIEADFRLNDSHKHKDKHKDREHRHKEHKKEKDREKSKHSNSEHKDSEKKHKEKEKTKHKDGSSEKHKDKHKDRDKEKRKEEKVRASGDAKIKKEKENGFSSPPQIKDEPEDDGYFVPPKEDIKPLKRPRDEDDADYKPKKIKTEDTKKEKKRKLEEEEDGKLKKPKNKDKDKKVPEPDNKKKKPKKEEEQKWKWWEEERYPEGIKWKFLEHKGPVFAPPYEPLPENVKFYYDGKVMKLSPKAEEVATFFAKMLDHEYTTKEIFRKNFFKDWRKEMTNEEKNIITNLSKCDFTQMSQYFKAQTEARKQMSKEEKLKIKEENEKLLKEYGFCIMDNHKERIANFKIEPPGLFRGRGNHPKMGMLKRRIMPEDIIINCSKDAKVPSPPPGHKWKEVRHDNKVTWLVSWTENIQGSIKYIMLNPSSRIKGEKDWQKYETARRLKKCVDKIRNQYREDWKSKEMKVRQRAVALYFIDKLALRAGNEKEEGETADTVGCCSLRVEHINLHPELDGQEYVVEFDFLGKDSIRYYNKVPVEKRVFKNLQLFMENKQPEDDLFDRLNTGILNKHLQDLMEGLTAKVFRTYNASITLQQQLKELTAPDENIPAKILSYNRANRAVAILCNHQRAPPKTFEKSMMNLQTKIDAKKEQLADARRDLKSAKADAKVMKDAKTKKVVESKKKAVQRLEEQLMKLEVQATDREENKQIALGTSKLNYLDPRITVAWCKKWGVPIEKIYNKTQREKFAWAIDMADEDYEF
Procedure: Topoisomerase I Activity (In Vitro)
Topoisomerase I activity was measured as described below: The procedure for assaying compound-induced, topoisomerase I-mediated single strand breaks in DNA was essentially that described by Hsiang, et al., (J. Biol Chem. 1985, 260, 14873-14878). Samples dissolved in 100% DMSO as either 10 μM or 10 mg/ml solutions, unless otherwise stated, were diluted in Tris-EDTA buffer. Marine bacteriophage PM2 DNA (Boehringer Mannheim) was also diluted in Tris-EDTA buffer to a concentration of 0.02 μg/μl. Different dilutions of the compound being evaluated were mixed with diluted DNA and this mixture was added to 1000 unit (one unit of enzyme activity is defined as the amount capable of relaxing 100 ng of supercoiled DNA in approximately 30 minutes at 37° C.) aliquots of purified human topoisomerase I (Topogen) in 2× reaction buffer to start the reaction. The compound-DNA-enzyme mixture was incubated for 30 minutes at 37° C. before stopping the reaction with warm stop buffer containing sodium dodecyl sulfate and proteinase K (Sigma). These mixtures were allowed to incubate at 37° C. for another 10 minutes, at which time the mixtures were removed from the waterbath and extracted with a 24:1 mixture of chloroform/isoamyl alcohol. Following centrifugation, aliquots of the aqueous phases were placed in wells of a 0.9% agarose (SeaKem) gel in Tris-borate buffer containing 0.5 μg/ml of ethidium bromide and subjected to electrophoresis for 15 hours to separate the different topological isomers and nicked and broken DNAs. After destaining the gel in water, the ethidium bromide stained DNA reaction products were visualized by exposing the gel to UV irradiation. Negatives of the photographs of the irradiated gels were scanned with a densitometer and areas under the peaks were calculated in order to obtain percent single strand DNA break formation for each sample. A median effective concentration (EC50) was obtained for each compound by interpolation between points of the resulting dose-effect curve which defines the potency of the compound for its effect in inducing topoisomerase I-mediated single strand breaks in DNA.
The topoisomerase I activity for certain compounds of the present invention is shown below in Table I.

murine P388 cell line = assay: In vitro cell-based cytotoxicity: proliferation inhibition, XTT tetrazolium assay; conditions: P388 cells, 72 h at 37° C., XTT absorbance at 450 nm, read-out: IC50 (drug concentration required to inhibit cell proliferation to 50% of untreated control cells)
Procedure: In Vitro Cell-Based Cytotoxicity Activity
The proliferation inhibition activity against murine P388 cell line was measured as follows. Evaluation of a soluble tetrazolium/formazan assay for cell growth and drug sensitivity in culture, using human and other tumor cell lines, was done according to the procedure described in Cancer Res. 1988, 48, 4827-4833. Cells were plated at 4000 cells/well in 96 well microtiter plates and 24 h later drugs were added and serially diluted. The cells were incubated at 37° C. for 72 h, at which time a tetrazolium dye, XTT, containing phenazine methosulfate was added. A dehydrogenase enzyme in live cells reduced the XTT to a form that absorbs light at 450 nm, which could be quantitated spectrophotometrically. The greater the absorbance the greater the number of live cells. The results are expressed as an IC50, which is the drug concentration required to inhibit cell proliferation (i.e., absorbance at 450 nm) to 50% of that of untreated control cells.

Molecule	EC50 [1]	melting point	IC50 (murine P388 cell line)	IC50 (murine P388 cell line; Mus musculus)
2,3,9,10-Tetrafluoro-12,13-[1,5-(6-deoxy-β-D-glucopyranosyl)]-6,7,12,13-tetrahydro(5H)indolo[2,3-a]pyrrolo[3,4-c]carbazole-5-one and 2,3,9,10-Tetrafluoro-12,13-[1,5-(6-deoxy-β-D-glucopyranosyl)]-6,7,12,13-tetrahydro(5H)-indolo[2,3-a]pyrrolo[3,4-c]carbazole-7-one [Example 23]	2.1 µM	–	0.24 µM	–
O=C1NC(=O)c2c1c1c3cc(F)c(F)cc3n3c1c1c2c2cc(F)c(F)cc2n1C1OC(CC(O)C1O)C3 [Example 4, 2,3,9,10-Tetrafluoro-12,13-[1,6-(4-deoxy-β-D-glucopyranosyl)]-6,7,12,13-tetrahydro(5H)indolo[2,3-a]pyrrolo[3,4-c]carbazole-5,7-dione]	5.6 µM	–	–	0.07 µM
O=C1NC(=O)c2c1c1c3cc(F)c(F)cc3n3c1c1c2c2cc(F)c(F)cc2n1C1OC(C3)C(O)CC1O [Example 5, 2,3,9,10-Tetrafluoro-12,13-[1,6-(3-deoxy-β-D-glucopyranosyl)]-6,7,12,13-tetrahydro(5H)indolo[2,3-a]pyrrolo[3,4-c]carbazole-5,7-dione]	0.68 µM	–	–	0.023 µM
O=C1NC(=O)c2c1c1c3cc(F)c(F)cc3n3c1c1c2c2cc(F)c(F)cc2n1C1OC(C3)C(O)C(F)C1O [Example 6, 2,3,9,10-Tetrafluoro-12,13-[1,6-(3-deoxy-3-fluoro-β-D-glucopyranosyl)]-6,7,12,13-tetrahydro(5H)indolo[2,3-a]pyrrolo[3,4-c]carbazole-5,7-dione]	> 100 µM	–	–	7.7 µM
COC1C2Cn3c4c(Cl)cccc4c4c5c(c6c7cccc(Cl)c7n(c6c43)C(O2)C(O)C1O)C(=O)NC5=O [Example 7, 1,11-Dichloro-12,13-[1,6-(4-O-methyl-β-D-glucopyranosyl)]-6,7,12,13-tetrahydro(5H)indolo[2,3-a]pyrrolo[3,4-c]carbazole-5,7-dione]	> 100 µM	–	–	0.46 µM
O=C1NC(=O)c2c1c1c3cc(F)c(F)cc3n3c1c1c2c2cc(F)c(F)cc2n1C1OC(C3)C(F)(F)C(O)C1O [Example 9, 2,3,9,10-Tetrafluoro-12,13-[1,6-(4-deoxy-4,4-difluoro-β-D-glucopyranosyl)]-6,7,12,13-tetrahydro(5H)indolo[2,3-a]pyrrolo[3,4-c]carbazole-5,7-dione]	> 100 µM	–	–	0.021 µM
O=C1NC(=O)c2c1c1c3ccc(F)cc3n3c1c1c2c2ccc(F)cc2n1C1OC(C3)C(O)C(O)C1O [Example 10, 2,10-Difluoro-12,13-[1,6-β-D-glucopyranosyl]-6,7,12,13-tetrahydro(5H)indolo-[2,3-a]pyrrolo[3,4-c]carbazole-5,7-dione]	0.45 µM	> 300 °C	–	0.13 µM
O=C1NC(=O)c2c1c1c3ccc(F)cc3n3c1c1c2c2ccc(F)cc2n1C1OC(C3)C(F)C(O)C1O [Example 11, 2,10-Difluoro-12,13-[1,6-(4-deoxy-4-fluoro-β-D-glucopyranosyl)]-6,7,12,13-tetrahydro(5H)indolo[2,3-a]pyrrolo[3,4-c]carbazole-5,7-dione]	3.3 µM	315 °C (dec.)	–	0.021 µM
O=C1NC(=O)c2c1c1c3cc(F)ccc3n3c1c1c2c2cc(F)ccc2n1[C@@H]1O[C@H](CO)[C@H](O)[C@H](O)[C@@H]13 [Example 25, 3,9-Difluoro-12,13-[1,2-β-D-galactopyranosyl]-6,7,12,13-tetrahydro(5H)-indolo-[2,3-a]pyrrolo[3,4-c]carbazole-5,7-dione]	0.11 µM	–	–	0.0142 µM
O=C1NC(=O)c2c1c1c3cc(F)ccc3n3c1c1c2c2cc(F)ccc2n1C1OC(C3)C(F)C(O)C1O [Example 26, 3,9-Difluoro-12,13-[1,6-(4-deoxy-4-fluoro-β-D-glucopyranosyl)]-6,7,12,13-tetrahydro(5H)indolo[2,3-a]pyrrolo[3,4-c]carbazole-5,7-dione]	0.028 µM	–	–	0.003 µM
O=C1NC(=O)c2c1c1c3cc(F)ccc3n3c1c1c2c2cc(F)ccc2n1C1OC(C3)C(O)C(O)C1O (centres unmarked) [Example 27]	0.036 µM	–	–	0.0511 µM
O=C1NC(=O)c2c1c1c3cc(F)ccc3n3c1c1c2c2cc(F)ccc2n1[C@@H]1O[C@H](CO)[C@@H](O)[C@H](O)[C@@H]13 [Example 28, 3,9-Difluoro-12,13-[1,2-β-D-glucopyranosyl]-6,7,12,13-tetrahydro(5H)-indolo-[2,3-a]pyrrolo[3,4-c]carbazole-5,7-dione]	0.12 µM	–	–	0.347 µM

More lines, main results first:

EC50 [1]	melting point	Molecule	IC50 (murine P388 cell line)	IC50 (murine P388 cell line; Mus musculus)
0.35 µM	–	O=C1NC(=O)c2c1c1c3cc(F)c(F)cc3n3c1c1c2c2cc(F)c(F)cc2n1C1OC(C3)C(O)C(O)C1O [Example 3, 2,3,9,10-Tetrafluoro-12,13-(1,6-β-D-glucopyranosyl)-6,7,12,13-tetrahydro(5H)indolo[2,3-a]pyrrolo[3,4-c]carbazole-5,7-dione]	–	0.05 µM
0.62 µM	–	O=C1NC(=O)c2c1c1c3cc(F)c(F)cc3n3c1c1c2c2cc(F)c(F)cc2n1C1OC(C3)C(F)C(O)C1O [Example 8, 2,3,9,10-Tetrafluoro-12,13-[1,6-(4-deoxy-4-fluoro-β-D-glucopyranosyl)]-6,7,12,13-tetrahydro(5H)indolo[2,3-a]pyrrolo[3,4-c]carbazole-5,7-dione]	–	0.026 µM
8.2 µM	–	O=C1NC(=O)c2c1c1c3cc(F)c(F)cc3n3c1c1c2c2cc(F)c(F)cc2n1[C@@H]1OC(CO)[C@H]3C(O)C1O (stereo partly drawn) [Example 13, 2,3,9,10-Tetrafluoro-12,13-(1,4-β-D-galactopyranosyl)-6,7,12,13-tetrahydro(5H)indolo[2,3-a]pyrrolo[3,4-c]carbazole-5,7-dione]	–	2.8 µM
2.9 µM	–	O=C1NC(=O)c2c1c1c3cc(F)c(F)cc3n3c1c1c2c2cc(F)c(F)cc2n1[C@@H]1OC(CF)[C@H]3C(O)C1O (stereo partly drawn) [Example 16, 2,3,9,10-Tetrafluoro-12,13-[1,4-(6-deoxy-6-fluoro-β-D-galactopyranosyl)]-6,7,12,13-tetrahydro(5H)indolo[2,3-a]pyrrolo[3,4-c]carbazole-5,7-dione]	–	3.3 µM
0.29 µM	–	C[C@]12O[C@H]([C@H](O)[C@@H](O)[C@@H]1O)n1c3cc(F)c(F)cc3c3c4c(c5c6cc(F)c(F)cc6n2c5c31)C(=O)NC4=O [Example 21]	–	0.14 µM
0.32 µM	–	O=C1NC(=O)c2c1c1c3cc(F)c(F)cc3n3c1c1c2c2cc(F)c(F)cc2n1[C@@]1(CO)O[C@@H]3[C@H](O)[C@@H](O)[C@@H]1O [Example 22, 2,3,9,10-Tetrafluoro-12,13-(1,5-β-D-glucopyranosyl)-6,7,12,13-tetrahydro(5H)indolo[2,3-a]pyrrolo[3,4-c]carbazole-5,7-dione]	–	0.086 µM
